Assay results published in patent US20220168322A1, “NOVEL STAT3 INHIBITORS IDENTIFIED BY STRUCTURE-BASED VIRTUAL SCREENING INCORPORATING SH2 DOMAIN FLEXIBILITY” (Board of Regents, The University of Texas System, priority 2018, published 2022).

Assays:
[1] = system: G-CSF-stimulated pSTAT3; test: Inhibition of G-CSF-stimulated pSTAT3 in Kasumi-1 cells (Luminex, pSTAT3/GAPDH); assay type: cell-based; conditions: Kasumi1 cells, single concentration of 10 μM, G-CSF 100 ng/ml; pSTAT3/GAPDH relative to DMSO treated cells
Procedure: […] Total protein was assayed for pSTAT3 and GAPDH levels by Luminex. GAPDH-normalized pSTAT3 values were divided by the same for untreated cells and expressed as percentage. These values were plotted as a function of Log [M] compound, and IC50 calculated using GraphPad. Data from representative experiments from at least two repeats is shown.
Luminex bead-based assay. Luminex bead-based assays were used to determine levels of pSTAT3, pSTAT1, pSTAT5, and GAPDH, as described (Bharadwaj et al., 2015). […]

[2] = target: T1, STAT3 (aa 127-722) (Homo sapiens, UniProt P40763); test: SPR assay of STAT3 binding to immobilized EGFR pY1068 phosphododecapeptide; conditions: for % of max binding at 10 μm: pEGFRp-STAT3 binding (SPR) at pH 8, compound 10 μm; for % of max binding at 100 μm: pEGFRp-STAT3 binding (SPR) at pH 8, compound 100 μm
T1 construct: STAT3 (aa 127-722) at a concentration of 200 nM
Procedure: Surface plasmon resonance (SPR) assay of STAT3 binding pY-peptide. STAT3 (aa 127-722) at a concentration of 200 nM in 20 mM Tris buffer (pH 8) was pre-incubated without or with compounds prior to injection onto an SA chip immobilized with phosphorylated and control non-phosphorylated biotinylated EGFR derived dodecapeptides based on sequence surrounding Y1068 (Shao et al., 2004), on a Biacore 3000 biosensor (Biacore inc., Piscataway N.J.) and analyzed as described (Bharadwaj et al., 2016).
Surface Plasmon Resonance (SPR) was performed on the 24 compounds to determine their ability to block binding of purified STAT3 to an immobilized phosphododecapeptide based on EGFR Y1068 (EGFR pY-peptide), as described (Xu et al., 2009).

T1 sequence (P40763 127-722 isoform P40763-3 limits assumed, species assumed): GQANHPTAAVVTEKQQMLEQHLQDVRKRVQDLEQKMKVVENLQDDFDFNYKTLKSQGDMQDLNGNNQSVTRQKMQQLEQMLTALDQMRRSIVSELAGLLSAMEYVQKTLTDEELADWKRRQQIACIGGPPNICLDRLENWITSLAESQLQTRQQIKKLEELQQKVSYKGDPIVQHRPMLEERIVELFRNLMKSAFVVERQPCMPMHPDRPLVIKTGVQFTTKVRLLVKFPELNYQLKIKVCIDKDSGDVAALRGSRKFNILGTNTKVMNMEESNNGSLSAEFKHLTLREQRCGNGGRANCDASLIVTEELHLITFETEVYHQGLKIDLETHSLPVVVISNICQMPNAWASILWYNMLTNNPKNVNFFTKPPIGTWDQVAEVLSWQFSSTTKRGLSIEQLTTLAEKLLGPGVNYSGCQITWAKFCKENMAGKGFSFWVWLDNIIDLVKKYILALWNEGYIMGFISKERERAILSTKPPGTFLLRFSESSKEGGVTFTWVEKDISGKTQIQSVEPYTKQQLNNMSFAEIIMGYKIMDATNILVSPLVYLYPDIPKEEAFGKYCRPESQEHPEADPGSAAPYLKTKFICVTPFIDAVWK

Compound | % of Control Stimulated pSTAT3 [1] | % of max binding at 10 μm [2] | % of max binding at 100 μm [2]
CCCC(NC(=O)c1ccccc1)C(=O)OCC(=O)Nc1nc2ccc(OC)cc2s1 (centres unmarked) [AG-690/15437974] | 82% | – | –
CC(=O)c1ccc(NC(=O)c2ccc(CSc3nnc(NC(=O)CCc4ccccc4)s3)cc2)cc1 [SPEC-3] | 77% | – | –
Cc1c(C)c2ccc(OCC(=O)Nc3cccc([N+](=O)[O-])c3)c(C)c2oc1=O [SPEC-9] | 93% | – | –
Cc1c(Cl)c(=O)oc2c(C)c(OCc3ccc([N+](=O)[O-])cc3)ccc12 [SPEC-10] | 87% | – | –
O=C(COc1ccc(/C=C2/SC(=O)N(CC(=O)N3CCN(c4ccccc4)CC3)C2=O)cc1Br)Nc1ccccc1 [SPEC-11] | 86% | – | –
NC(=O)COc1ccc(/C=N/NC(=O)CCCOc2ccc(Cl)cc2Cl)cc1 [SPEC-12] | 75% | – | –
O=C(O)COc1ccc(/C=N/NC(=O)C2CCCN2S(=O)(=O)c2ccc(Cl)cc2)cc1 (centres unmarked) [SPEC-13] | 99% | – | –
N#Cc1ccccc1Sc1ccccc1C(=O)Nc1ccc(OCC(=O)N2CCOCC2)cc1 [SPEC-14] | 91% | – | –
CC(=O)NCCc1ccc(S(=O)(=O)Nc2ccc(C(=O)NCc3ccccc3)cc2)cc1 [SPEC-15] | 98% | – | –
CC1=CC(=O)OC2C=C(OCCCCCCOC3=CC4OC(=O)C=C(C)C4C=C3)C=CC12 (centres unmarked) [SPEC-17] | 106% | – | –
CCCCOc1ccc(/C=C2\SC(=O)NC2=O)cc1OCC [SPEC-20] | 27% | 76.7% | 46.1%
O=C(CN1C(=O)S/C(=C\c2ccc(-c3cc(C(=O)O)ccc3Cl)o2)C1=O)Nc1ccccc1 [SPEC-23] | 114% | – | –
Cc1ccccc1NC(=O)CN1C(=O)S/C(=C/c2ccc(-c3ccc(Cl)c(C(=O)O)c3)o2)C1=O [SPEC-24] | 105% | – | –
COC(=O)CSc1nc2ccc(NC(=O)c3ccccc3C(=O)N3CCN(c4ccccc4)CC3)cc2s1 [SPEC-27] | 61% | – | –
O=C(CSc1nnc(-c2ccccc2)c(-c2ccccc2)n1)Nc1ccc(S(=O)(=O)Nc2nccs2)cc1 [SPEC-30] | 68% | – | –
COc1ccc(CCNC2CC(=O)N(c3ccc(N4C(=O)CC(NCCc5ccc(OC)cc5)C4=O)cc3)C2=O)cc1 (centres unmarked) [SPEC-31] | 99% | – | –
CCOC(=O)COc1ccc(-c2nc3ccccc3s2)cc1OC [SPEC-33] | 89% | – | –
C=CCN1C(=O)NC(=O)/C(=C/c2ccc(OCC(=O)Nc3ccc(C)cc3)cc2)C1=O [SPEC-35] | 69% | – | –
CCOc1ccc(NC(=O)CN2C(=O)S/C(=C/c3ccc(OCC(N)=O)c(OCC)c3)C2=O)cc1 [SPEC-40] | 75% | – | –
COc1cc(C=Nc2cccc(Cl)c2)ccc1OCC(N)=O [SPEC-41] | 74% | – | –
O=C(O)c1ccc(-c2ccc(CNCCc3c[nH]c4ccccc34)o2)cc1 [SPEC-42] | 118% | – | –

Compound | % of Control Stimulated pSTAT3 [1] | % of max binding at 10 μm [2] | % of max binding at 100 μm [2]
O=C(O)c1cccc(-c2ccc(CNCc3ccc4c(c3)OCO4)o2)c1 [SPEC-43] | 96% | – | –
COc1ccccc1CCNCc1ccc(-c2cccc(C(=O)O)c2)o1 [SPEC-44] | 120% | – | –
CCC(Sc1nnc(NC(=O)CCc2ccccc2)s1)C(=O)Nc1ccc(C(C)=O)cc1 (centres unmarked) [SPEC-45] | 113% | – | –
CC1=NN(c2ccc(C)cc2)C(=O)/C1=C\c1ccc(-c2ccc(C(=O)O)cc2)o1 [SPEC-46] | 71% | – | –
O=C(NNC(=O)[C@@H]1CCCC[C@@H]1C(=O)O)c1ccc(NC(=O)C2CC2)cc1 [SPEC-47] | 104% | – | –
O=C(CCCCC(=O)NNC(=O)COc1ccc2ccccc2c1)NNC(=O)COc1ccc2ccccc2c1 [SPEC-49] | 105% | – | –
CCN(CC)S(=O)(=O)c1ccc(NC(=O)CCCC(=O)Nc2ccc(S(=O)(=O)N(CC)CC)cc2)cc1 [SPEC-51] | 87% | – | –
CC1CCN(S(=O)(=O)c2ccc(NC(=O)CCCC(=O)Nc3ccc(S(=O)(=O)N4CCC(C)CC4)cc3)cc2)CC1 [SPEC-52] | 120% | – | –
O=C(CCCCC(=O)Nc1ccc(S(=O)(=O)Nc2ccc(F)cc2)cc1)Nc1ccc(S(=O)(=O)Nc2ccc(F)cc2)cc1 [SPEC-53] | 71% | – | –
O=C(CCCCC(=O)Nc1ccc(S(=O)(=O)N2CCCC2)cc1)Nc1ccc(S(=O)(=O)N2CCCC2)cc1 [SPEC-55] | 114% | – | –
CCN1C(=O)/C(=C/c2ccc(OCC(=O)O)c(OC)c2)SC1=S [SPEC-59] | 78% | – | –
COc1cc(C=C2C(=O)OC(C)(c3ccccc3)OC2=O)ccc1OCc1cccc(C(=O)O)c1 (centres unmarked) [SPEC-60] | 98% | – | –
CC(=O)N1CCc2nc(SCC(=O)Nc3cccc(C#N)c3)c(C#N)c(C(F)(F)F)c2C1 [SPEC-62] | 108% | – | –
CC(=O)c1ccc(NC(=O)NC2CCCCC2)cc1 [SPEC-63] | 118% | – | –
CC(C)c1ccc(NC(=O)C2C3C=CC(CC3)C2C(=O)O)cc1 (centres unmarked) [SPEC-65] | 35% | 57.5% | 43.5%
CS(=O)(=O)c1ccc2nc(NC(=O)c3cccc(Cn4cc(Cl)cn4)c3)sc2c1 [SPEC-66] | 48% | 57.2% | 15.9%
COc1ccc(CCNC(=O)c2cccc(C(=O)NCCc3ccc(OC)c(OC)c3)c2)cc1OC [SPEC-67] | – | 64.1% | 51.3%
COc1ccc(/C=N/NC(=O)COc2ccc(Cl)cc2)cc1COc1cccc2cccnc12 [SPEC-69] | 112% | – | –
O=C(Nc1ccc(Oc2ccccc2Cl)cc1)C1C2CC3C(OC(=O)C31)C2Br (centres unmarked) [SPEC-73] | 38% | 58.5% | 31.5%
O=C(COC(=O)C1C2CC3C(OC(=O)C31)C2Br)c1ccc(Cl)cc1Cl (centres unmarked) [SPEC-74] | 82% | – | –
COc1cccc(-c2csc(NC(=O)C3CC(=O)N(c4cccc(Cl)c4)C3)n2)c1 (centres unmarked) [SPEC-75] | 55% | – | –

Compound | % of Control Stimulated pSTAT3 [1] | % of max binding at 10 μm [2] | % of max binding at 100 μm [2]
COc1ccc(C(=O)COC(=O)c2ccc(NC(=O)CCCC(=O)O)cc2)cc1 [SPEC-77] | 121% | – | –
CCN1C(=O)N/C(=C/c2ccc(OCc3cccc(C(=O)O)c3)c(Cl)c2)C1=O [SPEC-79] | 79% | – | –
O=C(O)c1ccc(-c2ccc(/C=C3/NC(=O)N(c4ccc(Cl)cc4)C3=O)o2)cc1 [SPEC-80] | 89% | – | –
O=C(O)c1ccc(-c2ccc(/C=C3/NC(=O)N(Cc4ccccc4F)C3=O)o2)cc1Cl [SPEC-82] | 27% | 109.3% | 28.4%
CCN1C(=O)S/C(=C/c2ccc(OCc3cccc(C(=O)O)c3)c(Br)c2)C1=O [SPEC-83] | 61% | – | –
CCOc1ccc(N(C(C)C(=O)Nc2cccc(Cl)c2C)S(C)(=O)=O)cc1 (centres unmarked) [SPEC-86] | 5% | 120.1% | 59.1%
CC(=O)c1ccc(NC(=O)CSc2nnc(CNc3ccc(C)cc3C)n2CC2CCCO2)cc1 (centres unmarked) [SPEC-89] | 68% | – | –
CCn1c(CNc2ccc(Cl)cc2)nnc1SC(C)C(=O)Nc1ccc(C(C)=O)cc1 (centres unmarked) [SPEC-90] | 4% | 132.2% | 59.5%
CC(=O)c1ccc(NC(=O)CSc2nnc(COc3ccc([N+](=O)[O-])cc3)n2C)cc1 [SPEC-92] | 51% | – | –
CC(=O)c1ccc(NC(=O)C(C)Oc2ccccc2)cc1 (centres unmarked) [SPEC-94] | 97% | – | –
COc1cccc(N=C2SC(C(=O)Nc3ccc(C(=O)O)cc3)CC(=O)N2C)c1 (centres unmarked) [SPEC-95] | 104% | – | –
O=C(CCN1C(=O)S/C(=C\c2ccc(Cl)cc2)C1=O)Nc1ccc(S(=O)(=O)Nc2nccs2)cc1 [SPEC-97] | 55% | – | –
CC(=O)c1ccc(NC(=O)CC2S/C(=N\N=C3CCCCCC3)NC2=O)cc1 (centres unmarked) [SPEC-99] | 67% | – | –
COC(=O)c1ccc(N2C(=O)CC(SC(=NCCc3ccc(S(N)(=O)=O)cc3)Nc3ccccc3)C2=O)cc1 (centres unmarked) [SPEC-100] | 42% | 70.8% | 15.4%
CC(=O)c1ccc(NC(=O)C2C3CC/C=C\CCC32)cc1 (centres unmarked) [SPEC-102] | 38% | 73.7% | 21.4%
CC(=O)c1ccc(NC(=O)CSc2nn3c(SCC(=O)Nc4ccc(C(C)=O)cc4)nnc3s2)cc1 [SPEC-104] | 91% | – | –
O=C(CN1C(=O)S/C(=C/c2ccc(Cl)cc2)C1=O)Nc1ccc(S(=O)(=O)Nc2nccs2)cc1 [SPEC-105] | 86% | – | –
CN1CCS/C1=C/C=C1\SC(=S)N(CC(=O)O)C1=O [SPEC-107] | 107% | – | –
COC(=O)CCC(=O)Nc1ccc(Cc2ccc(NC(=O)CCC(=O)OC)cc2)cc1 [SPEC-108] | 98% | – | –
